Test results: patent US11980600B2, “Diagnostic assay and treatment for preeclampsia” (MIRZYME THERAPEUTICS LIMITED, priority 2015, dated 2024)

Key:
[1] = tested on: Ad-sFlt-1 injected Hmox1−/− mice; assay: Co-treatment rescue study of renal injury in non-pregnant Hmox1-/- mice injected with Ad-sFlt-1; type: in vivo; settings: for proteinuria (24 h urinary albumin:creatinine ratio) / urinary KIM-1 levels: high sFlt-1; for renal glomerulosclerosis and mesangiolysis (glomerular histology): high sFlt-1, nor-NOHA daily i.p., L-arginine 25 g/L in drinking water
Description: Non-pregnant studies were carried out twelve-week-old Hmox1^−/− mice and Hmox1^+/+ mice. Animals were injected with 1×10^9 PFU of Ad-sFlt-1 or Ad-CMV (control) adenovirus by injection into the tail vein. Nine days after adenovirus administration, mice were individually placed in metabolic cages for 24 hours. Body weight, food and water intake, and urine volume were measured. Following urine measurements, blood sampling was undertaken on day 10, the animals were euthanized, and their kidneys and livers were collected for further analysis. Co-treatment rescue studies using arginase inhibitor and/or L-arginine supplementation were also undertaken in non-pregnant Hmox1^−/− mice and Hmox1^+/+ animals. Mice were injected intraperitoneally with nor-NOHA (Bachem, Bubendorf, Switzerland) daily. L-arginine (Sigma-Aldrich, St. Louis, MO) was given to the animals by supplementing the drinking water with 25 g/L one week before the Ad-sFlt-1 adenovirus injection and until the end of the study.
(§1) Urinary albumin was determined using Albuwell-M kits (Exocell Inc, Philadelphia, PA). Enzyme-linked immunosorbent assay kits for human and murine sFlt-1, KIM-1, and PIGF were obtained from R&D Systems and performed according to the manufacturer's specifications.
Human and murine placental tissues were prepared for immunohistochemistry as previously described. Immunohistochemistry was performed by using antibodies to Arginase-1, Ass1, Asl, and 3-nitrotyrosine. The following antibodies were used: (1) anti-arginase-1 antibody (1:50, Genetex); (2) anti-argininosuccinate synthase (1:100), Abcam); (3) anti-argininosuccinate lyase (1:100, Abcam) and (4) anti-3-Nitrotyrosine (1:100 dilution, Abcam). Sections from mouse kidneys or human placental biopsies were rehydrated, blocked with the use of normal serum, and incubated with primary antibody for 2 hours at room temperature. Visualization was performed by using a Vectastain ABC kit, with DAB. Slides were counterstained with hematoxylin. The staining was analysed by using a Nikon inverted microscope and Image Pro-Plus image analysis software.

[2] = tested on: Ad-sFlt-1 injected Hmox1+/− pregnant mice; assay: Rescue of preeclampsia phenotype in timed pregnant Hmox1+/- mice injected with Ad-sFlt-1; type: in vivo; settings: for signs of preeclampsia overall: Ad-sFlt-1, agent given alone; for average fetal weight / fetal resorption rate / mean arterial blood pressure (MAP) / hypertension / proteinuria (24 h urinary albumin:creatinine ratio): Ad-sFlt-1, day 18 of gestation
Description: Pregnant mice studies were carried out ten to twelve-week-old Hmox1^+/− mice and Hmox1^+/+ mice or wild-type C57/B16 mice. The first day of pregnancy (E0.5) was defined by the presence of a vaginal plug the following morning. On E10.5 (second trimester) pregnant mice were injected with 1×10^9 PFU of Ad-sFlt-1 or Ad-CMV (control) adenovirus by injection into the tail vein. For RUPP study, on day 13 of gestation, time pregnant C57/Bl6 mice were anesthetized. An incision was made down the midline of the body and the abdominal aorta was isolated. The vessel was then restricted with 7.0 suture tied around a blunt needle (approximate diameter of 1 mm^2) placed on the aorta. The needle was then removed. Right ovarian artery was restricted with 7.0 suture. The incisions were closed and the mice were allowed to recover for five days. For the low-dose sFlt-1 experiment, 1×10^8 PFU of adenovirus expressing sFlt-1 was used. On E17.5 mice were individually placed in metabolic cages for 24 hours and arterial blood pressure was measured at E18.5 as described previously (Wang et al. 2013). In brief, mice were anesthetized by using a ketamine/xylazine cocktail, and the carotid artery was isolated and cannulated with a Millar 1-French Mikro-Tip pressure catheter connected to a pressure transducer (ADInstruments Ltd, Oxford, UK). After 30 minutes of blood pressure stabilization, arterial pressure was recorded and averaged over an additional 10-minute period. Following measurements, blood sampling was undertaken, the animals were euthanized, and their kidneys, livers, and placentas were collected. The live fetuses and placentas were counted and weighed. All experimentation was conducted in accordance with the United Kingdom Animals (Scientific Procedures) Act, 1986 with the use of procedures approved by the University Ethical Review Committee.
as §1

SMILES | proteinuria (24 h urinary albumin:creatinine ratio) [1] | urinary KIM-1 levels [1] | renal glomerulosclerosis and mesangiolysis (glomerular histology) [1] | signs of preeclampsia overall [2] | average fetal weight [2] | fetal resorption rate [2] | mean arterial blood pressure (MAP) / hypertension [2] | proteinuria (24 h urinary albumin:creatinine ratio) [2]
N=C(N)NCCC[C@H](N)C(=O)O [L-arginine] | improvements were absent | improvements were absent | improvements were absent | failed to abolish all signs of preeclampsia | no significant improvement | no significant improvement | significantly reduced | no significant improvements
N=C(NO)NCC[C@H](N)C(=O)O [nor-NOHA, N-w-hydroxy-L-nor-arginine] | improvements were absent | improvements were absent | improvements were absent | failed to abolish all signs of preeclampsia | no significant effect | reduced | no significant effect | no significant improvements
